# According to ChEMBL document CHEMBL5518208 (J Med Chem, 2024):
# How the values were obtained:
# Type in all cases: ADME, organism-based
# [1] = Half life in male ICR mouse at 5 mg/kg, iv measured upto 24 hrs by LC-MS/MS analysis; details: in vivo
# [2] = Cmax in male ICR mouse at 25 mg/kg, po measured upto 24 hrs by LC-MS/MS analysis; details: in vivo
# [3] = AUC last in male ICR mouse at 5 mg/kg, iv measured upto 24 hrs by LC-MS/MS analysis; details: in vivo
# [4] = Half life in male ICR mouse at 25 mg/kg, po measured upto 24 hrs by LC-MS/MS analysis; details: in vivo
# [5] = Drug concentration in BALB/c mouse plasma at 100 mg/kg, sc measured after 0.5 hrs by LC-MS/MS analysis
# [6] = Observed clearance in male ICR mouse at 5 mg/kg, iv measured upto 24 hrs by LC-MS/MS analysis; details: in vivo
# [7] = Observed AUC infinity in male ICR mouse at 5 mg/kg, iv measured upto 24 hrs by LC-MS/MS analysis; details: in vivo
# [8] = Drug concentration in BALB/c mouse plasma at 100 mg/kg, sc measured after 1 hrs by LC-MS/MS analysis
# [9] = Observed volume of distribution at steady state in male ICR mouse at 5 mg/kg, iv measured upto 24 hrs by LC-MS/MS analysis; details: in vivo, read-out: Vdss
# [10] = Tmax in male ICR mouse at 25 mg/kg, po measured upto 24 hrs by LC-MS/MS analysis; details: in vivo
# [11] = Observed MRT infinity in male ICR mouse at 25 mg/kg, po measured upto 24 hrs by LC-MS/MS analysis; details: in vivo
# [12] = Observed MRT infinity in male ICR mouse at 5 mg/kg, iv measured upto 24 hrs by LC-MS/MS analysis; details: in vivo
# [13] = AUC last in male ICR mouse at 25 mg/kg, po measured upto 24 hrs by LC-MS/MS analysis; details: in vivo
# [14] = Drug concentration in BALB/c mouse plasma at 100 mg/kg, sc measured after 4 hrs by LC-MS/MS analysis
# [15] = Drug concentration in BALB/c mouse plasma at 100 mg/kg, sc measured after 2 hrs by LC-MS/MS analysis
# [16] = Observed AUC infinity in male ICR mouse at 25 mg/kg, po measured upto 24 hrs by LC-MS/MS analysis; details: in vivo
compound,measurement,setting,value
O=c1ccc2c(N3C[C@@H]4[C@@H](CCP(=O)(O)O)[C@@H]4C3)ncnc2[nH]1,half-life,[1],60.6 min
same,Cmax,[2],352 ng/mL
same,AUC(0-t) at 24 h,[3],4390 ng·h/mL
same,half-life,[4],33.6 min
same,concentration at 0.5 h,[5],112 µM
same,clearance,[6],21.6 mL/min/kg
same,AUC(0-inf),[7],4400 ng·h/mL
same,concentration at 1 h,[8],26 µM
same,Vd,[9],0.373 L/kg
same,Tmax,[10],45 min
same,MRT inf,[11],156 min
same,MRT inf,[12],18.6 min
same,AUC(0-t) at 24 h,[13],932 ng·h/mL
same,concentration at 4 h,[14],0.04 µM
same,concentration at 2 h,[15],1.5 µM
same,AUC(0-inf),[16],965 ng·h/mL
